Test results from patent US9212196B2, “Hypophosphorous acid derivatives having antihyperalgic activity and biological applications thereof” (UNIVERSITE PARIS DESCARTES, priority 2011, dated 2015).

Assays:
[1] = system: CCI neuropathic pain model; experiment: Paw pressure test in CCI neuropathic pain model in rats; type: in vivo, rat
Description: After the induction period of the neuropathy or inflammation, various amounts of derivative 2 dissolved in serum have been injected in rats, (from 0.5 to 15 μg/rat, i.t. from 1 to 30 mg/kg, i.p.) on time-course of vocalization threshold to paw pressure. The results obtained on healthy animals are given on FIG. 1. They are expressed by the time course curves of means+/-SEM of vocalization threshold in grams (n=6-8 rats per group) (A) or by the area under the curve (B). Morphine (10 μg/rat, i.t.) is used as a positive control. […] FIG. 4 illustrates the effect of intrathecal administration of derivative 2 on the vocalization threshold to paw pressure in the CCI neuropathic pain model (effect of derivative 2 (1, 5, 10 μg/rat, i.t.) on time-course of vocalization threshold to paw pressure). Gabapentin (100 mg/kg, p.o.) is used as a positive control. […] The effect of intrathecal administration of derivative 2 (10 μg/rat, i.t.) on the vocalization threshold to paw pressure in the CCI neuropathic pain model after mGluR4 or mismatch ODN treatment is illustrated by FIG. 4. […] The animals were submitted to the paw pressure test previously described by Randall and Selitto (1957). Nociceptive thresholds, expressed in grams (g), were measured with a Ugo Basile analgesimeter (Apelex, tip diameter of the probe: 1 mm, weight: 30 g) by applying an increasing pressure to the right hind paw of rats until a squeak (vocalization threshold) was obtained (cut-off was 750 g except carrageenan treated animals for which the cut-off was 500 g). The treatments were done after the measurement of two consecutive stable vocalization threshold values and their effects were assessed 15, 30, 45, 60, 90, and 120 min after. Unilateral peripheral mononeuropathy was induced according to the method described by Bennett and Xie (1988). Briefly, after determining vocalization thresholds, rats were anesthetized with sodium pentobarbital (50 mg/kg i.p.) and four chromic gut (5-0) ligatures were tied loosely (with about 1-mm spacing) around the right common sciatic nerve. The nerve was constricted to a barely discernible degree, so that circulation through the epineurial vasculature was not interrupted. Only animals presenting a decrease ≧15% of the presurgery value of vocalization threshold were selected, i.e., 90% of ligated animals (presurgery value: 379±7 g, pre-drug value: 188±7 g). Intrathecal injections were performed, under isoflurane anesthesia (4% induction, 2% maintenance), as previously described (Mestre et al., 1994). Briefly, the anesthetized rat was held in one hand by the pelvic girdle and a 25-gauge X1-inch needle connected to a 25 μL Hamilton syringe was inserted into the subarachnoidal space between lumbar vertebrae L5 and L6, until a tail flick was elicited. The syringe was held in position for few seconds after the injection of a volume of 10 μL/rat. AS ODN was designed based on rat mGluR4 sequence in regions lacking known splice variants. […]. One ODN with scramble arrangement in the base composition compared to the 18-mer specific as was used as control for sequence-independent effects of ODN treatments. […] Pain scores were determined using standard methods in strict conformity with ethical standards (Zimmermann M., 1983) before ODN treatments and then on day 4 in the afternoon. […]

[2] = system: carrageenan inflammatory pain model; experiment: Paw pressure test in carrageenan inflammatory pain model in rats; type: in vivo, rat
Description: After the induction period of the neuropathy or inflammation, various amounts of derivative 2 dissolved in serum have been injected in rats, (from 0.5 to 15 μg/rat, i.t. from 1 to 30 mg/kg, i.p.) on time-course of vocalization threshold to paw pressure. The results obtained on healthy animals are given on FIG. 1. They are expressed by the time course curves of means+/−SEM of vocalization threshold in grams (n=6-8 rats per group) (A) or by the area under the curve (B). Morphine (10 μg/rat, i.t.) is used as a positive control. […] FIG. 2 illustrates the effect of intrathecal administration of derivative 2 on the vocalization threshold to paw pressure in the carrageenan inflammatory pain model (effect of derivative 2 (0.5, 1, 5, 10 μg/rat, i.t.) on time-course of vocalization threshold to paw pressure). Morphine (10 μg/rat, i.t.) is used as a positive control. […] Nociceptive thresholds, expressed in grams (g), were measured with a Ugo Basile analgesimeter (Apelex, tip diameter of the probe: 1 mm, weight: 30 g) by applying an increasing pressure to the right hind paw of rats until a squeak (vocalization threshold) was obtained (cut-off was 750 g except carrageenan treated animals for which the cut-off was 500 g). The treatments were done after the measurement of two consecutive stable vocalization threshold values and their effects were assessed 15, 30, 45, 60, 90, and 120 min after. […]

N[C@@H](CCP(=O)(O)C(O)c1ccc(OCC(=O)O)cc1)C(=O)O (stereo partly drawn) [Derivative 2, [((3S)-3-Amino-3-carboxy)propyl][(4-(carboxymethoxy)phenyl)hydroxymethyl]phosphinic Acid]
antihyperalgesic effect on vocalization threshold to paw pressure ([1]; CCI neuropathic pain, rats, 1-10 μg/rat i.t.): abolishes the excess of mechanical pain
antihyperalgesic effect after antisense oligonucleotides against mGlu4 ([1]; CCI neuropathic rats, 10 μg/rat i.t., versus saline or mismatch ODN): significantly reduced
mechanical antihyperalgesia after knockdown of spinal mGlu4 expression by antisense oligonucleotides ([1]; FIG. 7 legend, model not named): reduces mechanical antihyperalgesia
antihyperalgesic effect compared to gabapentine ([1]; neuropathy model, gabapentine 100 mg/kg per os as control): significantly higher than the one of gabapentine
antihyperalgesic effect on vocalization threshold to paw pressure ([2]; carrageenan inflammatory pain, rats, 0.5-10 μg/rat i.t., FIG. 2): abolishes the excess of mechanical pain
antihyperalgesic effect compared to morphine ([2]; inflammatory pain, morphine 10 μg/rat i.t. as control): close to the one of morphine
